Experiments:
Type in all cases: in vivo
DSS-induced colitis mice = assay: DSS-induced colitis in mice, DAI score; conditions: 5% DSS orally 7 days, OxA 0.22 μmoles/kg daily intraperitoneal, scale 0 to 4
Excerpt: FIG. 1. Orexin A ameliorates the DAI (weight and colitis score) of DSS-induced colitis mice. Mice were orally treated with 5% DSS for 7 days in the presence or in the absence of daily intraperitoneal injection of OxA (0.22 μmoles/kg). DAI score including weight loss, severity of diarrhea, the presence of blood in the stool, inflammation and edema was estimated using a scale ranging from 0 (no symptoms) to 4 (severe colitis). DSS, dextran sulfate sodium; WT, wild type mice.
Orexin A ameliorates the DAI (weight and colitis score) of DSS-induced colitis mice. As shown in FIG. 1 when DSS-induced colitis mice were treated with OxA, the DAI score was ameliorated (about of 1.5). […] Therefore, orexin A presents potent intrinsic anti-inflammatory properties, capable of modulating the Th/Treg homeostasis during an auto-immune response as aggressive as in a chronic EAE model.

[1] = test system: EAE mice (C57BL/6 wild-type); assay: EAE (MOG35-55 induced) clinical score in mice; conditions: orexin A 100 or 300 μg per mouse for 5 days, IP or retro-orbital, before onset or at moderate EAE score, scale 0-5
Method: FIG. 2. […] EAE was induced with 100 μg of MOG35-55 (Myelin Oligodendrocyte Glycoprotein 35-55) as previously described (Proc Natl Acad Sci USA. 106(6):2012-7, 2009) to 9 week old female C57BL/6 wild-type (WT) mice (n=10/group). Panels show clinical signs of EAE scored daily in a blinded fashion for over 30 days on a scale of 0-5 as follows: 0, no detectable clinical signs, 1, waddling gait with limp tail, 2, ataxia with full paralysis of one limb, 3, full paralysis of two limbs, 4, full paralysis of two limbs with important weight loss (>20% of initial weight) and 5, moribund or dead. Then, mice were given:
Panel A, intraperitoneally (IP) either PBS (group PBS IP), 100 μg of orexin A per mouse for 5 days on day 3 (=before the onset, group BOxA100 IP) or at a moderate EAE score (=1.5-2 for group OxA100 IP).
Panel B, intraperitoneally either PBS (group PBS), 100 μg (group OxA100 IP) or 300 μg (group OxA300 IP) of orexin A per mouse for 5 days at a moderate EAE score (=1.5-2).
Panel C, either PBS (group PBS), 300 μg of orexin A per mouse intraperitoneally (group OxA300 IP) or retro-orbitally (RO) (group OxA300 RO) for 5 days at a moderate EAE score (=1.5-2).
The EAE score is shown as mean+/−SEM. *P<0.05 (nonparametric t-test, compared to PBS group).
Orexin A ameliorates the DAI (weight and colitis score) of DSS-induced colitis mice. […]

EAE mice spinal cord = assay: Spinal cord histopathology of EAE mice; conditions: 30 days post-immunization, OxA 300 μg IP or RO, grading 0-4, vs PBS
Method: FIG. 3. […] 30 days post-immunization, mice (from the PBS, OxA300 RO, and OxA300 IP groups of FIG. 2, panel C) were sacrificed and spinal cords were harvested, fixed overnight in 4% paraformaldehyde and stored in 70% ethanol. Spinal cords were then embedded in paraffin and cut in […] section. After haematoxylin/eosin (to distinguish cell infiltration) and luxol fast blue (to label myelin) staining, photography was performed at ×1.25 and ×10 magnifications for the spinal cord sections of PBS, OxA300 RO and OxA300 IP mice. […] Histopathology grading was as follows: 0-normal appearance, 1—some infiltrated cells and low demyelination, 2—2 or 3 infiltrated areas and low demyelination, 3—numerous infiltrated areas and strong demyelination, 4—important cell infiltration throughout the tissue with strong demyelination. *P<0.05 (nonparametric t-test, compared to PBS group).

[2] = test system: IFNγ and IL-17 gene expression; assay: Th1 (IFNγ) and Th17 (IL-17) cytokine gene expression in brain of EAE mice, RT-qPCR; conditions: 30 days after EAE induction, OxA 300 μg IP or RO, vs PBS
Method: FIG. 4. […] It was determined 30 days after EAE induction of PBS, OxA300 RO, and OxA300 IP mice (from FIG. 2, panel C) by real time RT-qPCR as previously described (Proc Natl Acad Sci USA. 106(6):2012-7, 2009). *P<0.05 (nonparametric t-test, compared to PBS group).

regulatory T cell (Treg) = assay: Regulatory T cells in draining lymph nodes of EAE mice, flow cytometry; conditions: day 30 post-immunization, OxA 300 μg IP or RO, vs PBS
Method: FIG. 5. […] On day 30 post-immunization, draining lymph nodes were harvested from the naïve, PBS, OxA300 RO, and OxA300 IP groups (FIG. 2, panel C). Assessment by flow cytometry was performed by using the mouse regulatory T cell staining kit: lymph node Tregs were defined as CD4^+CD25^+Foxp3^+ cells and proliferative Tregs as CD4^+CD25^+Foxp3^+Ki67^+ cells.
Histograms represent the mean of the percentage (left) and the total number (right) of Tregs and proliferative Tregs (Ki67^+Tregs) for each group. Bars represent the mean+/−SEM of 5 individual mice. *P<0.05 (non parametric t-test, compared to PBS group).

[3] = test system: chronic pancreatitis mice model induced by cerulein; assay: Cerulein-induced chronic pancreatitis mice model; conditions: OxA 1.40 μmol/Kg 2 ip injections/week
Excerpt: FIG. 7. Pancreatic lymphocyte infiltration determined by immunostaining of CD45+ cells. Values were expressed as percentage of stained surface. **, p<0.01
FIG. 8. Amylase activity in blood samples of control mice, cerulein-induced mice and cerulein-induced mice treated with OxA. *, p<0.05; ***, p<0.001 and NS=non-significant.
We have investigated the effect of orexin A (OxA) on chronic pancreatitis mice model induced by supraphysiologic doses of cerulein (3 intraperitoneal injections/week at 100 μg/kg). […] In mice treated by OxA (2 intraperitoneal injections/week at 1.40 μmol/Kg) the lesions induced by cerulein improved. OxA-treated mice had lower number of acino-ductal metaplasia.

Orexin A: neuropeptide, endogenous ligand of OX1R and OX2R; SEQ ID NO:2 peplpdccrqk tcscrlyell hgagnhaagi ltlx
DAI score (weight and colitis score) (DSS-induced colitis mice): ameliorates
DAI score (weight and colitis score) (DSS-induced colitis mice; listed as OxA): ~1.5
clinical features of EAE (EAE score) [1]: dramatically alleviate
clinical features of EAE (EAE score) ([1]; listed as orexin A): significantly ameliorated
histopathological EAE score (EAE mice spinal cord): significantly decreases
histopathological EAE score (EAE mice spinal cord; listed as orexin A): drastic reduction
Th1/Th17 pro-inflammatory responses (IFNγ, IL-17 gene expression) in CNS tissues [2]: efficiently suppresses
Th1/Th17 pro-inflammatory responses (IFNγ, IL-17 gene expression) in CNS tissues ([2]; listed as orexin A): drastic reduction
regulatory T cell (Treg) proportion (regulatory T cell (Treg)): increased
regulatory T cell (Treg) proportion (regulatory T cell (Treg); listed as orexin A): increase
lesions induced by cerulein (pancreas histology) ([3]; 3 weeks cerulein 100 μg/kg 3 ip injections/week): improved
amylase activity in blood samples ([3]; cerulein mice): significantly reduced
number of acino-ductal metaplasia ([3]; cerulein mice): lower number
pancreatic lymphocyte infiltration (anti-CD45 immunohistochemistry) ([3]; cerulein mice, quantitative imaging analysis, 18% in OxA-untreated mice): 6 % of the pancreatic surface
pancreatic fibrosis on Picrosirius staining ([3]; cerulein mice, quantitative imaging analysis, 40% in OxA-untreated mice): 12 % of the pancreatic surface
